We go through nine compounds from US20250347680A1, “METHODS OF OPTIMIZING KINASE INHIBITORS” (Brandeis University, priority 2024, published 2025).

In one assay the test system is MKK6. Particulars: previous reports; cited from earlier work.
Assay [1] concerns p38α phosphorylation in HL60 cells. Kind of assay: Western blot of p38α phosphorylation in HL60 cells after TNFα or LPS stimulation. Particulars: for level of dual-phosphorylated p38α in HL60 cells: 10 μM inhibitor 30 minutes after stimulation with TNFα (40 ng/mL) or LPS; for level of dual-phosphorylated p38α in HL60 cells / single-tyrosine phosphorylated p38α / phospho-tyrosine in HL60 cells (phospho-site specific antibody) / threonine phosphorylation of p38α in HL60 cells (phospho-site specific antibody): western blot; for single-tyrosine phosphorylated p38α / phospho-tyrosine in HL60 cells (phospho-site specific antibody) / threonine phosphorylation of p38α in HL60 cells (phospho-site specific antibody): 10 μM inhibitor after TNFα stimulation; for p38α threonine phosphorylation in cells harvested immediately after addition of inhibitor: cells pretreated with TNFα. In kind it is cell-based, human. Here is the method:
Cell culture, reagents and antibodies: HL60 cells were maintained in RPM I media supplemented with 2 mM L-glutamine and 10% fetal bovine serum (FBS) at 37° C. in a humidified atmosphere of 5% CO2. HL60-APPM1A were generated. The following antibodies were obtained from Cell Signaling Technologies (Danvers, MA); PPM1A (cat. #3549), p38 (cat. #9212) and 2p-p38 (cat. #4511). The following antibodies were obtained from A B Clonal (Woburn, MA); p38-phospho-Y182 (cat. #AP0057) and p38-phospho-T180 (cat. #AP0056). B-actin antibody (cat. #sc-47778) was obtained from Santa Cruz Biotechnology (Santa Cruz, CA). Recombinant human TNFα (cat. #300-01A) was obtained from Peprotech (Cranbury, NJ). Lipopolysaccharide (LPS) 500× solution (cat. #50-112-9325) was obtained from Invitrogen (Waltham, MA).
Cellular assays: HL60 cells were cultured in 6 well plates and grown until a density of 2 million cells/mL. […] Cells were spun down at 500 xg for 5 minutes, carefully washed with PBS once, and lysed with 50 μL RIPA buffer supplemented with 1:1000 phosphatase inhibitor and 1:500 benzonase. Lysates were centrifuged at 10,000 rpm for 15 minutes. Supernatant was harvested and lysate was either analyzed immediately or flash-frozen and stored at −80° C.
Western blot: Protein concentration of the lysate was determined using Bradford reagent normalized to a standard curve. 40-50 μg total protein per sample was separated on a 10% Tris-tricine polyacrylamide gel and then transferred to a polyvinylidene (PV DF) membrane using the Bio-Rad transfer system. Standard blotting protocol was followed. Primary antibodies (see antibody section) were incubated overnight at 4° C. followed by near-infrared (NIR) labeled secondary antibodies Goat anti-Rabbit IgG (H+L) Cross-Adsorbed Secondary Antibody, DyLight™ 800 (cat #. SA5-10036) or IgG (H+L) Cross-Adsorbed Goat anti-mouse, DyLight™ 680, Invitrogen™ (cat #. 35519) obtained from Invitrogen (Waltham, MA) for 1 hour at room temperature in 2.5% milk in TBST. Blots were washed and imaged on a LI-COR imaging instrument.
On the technique in general: In western blotting, separated proteins are transferred to a membrane and probed.

Another assay addresses T1, p38α (Homo sapiens, UniProt Q16539).
T1 construct: 6-His (cleaved yes); made in house; host or cells: E. coli BL21 (DE3)
Nature of the assay: WIP1 phosphatase assay: dephosphorylation of 32P-labelled dual-phosphorylated p38α bound to inhibitor. As to conditions: p38α 0.25 μM, WIP1 2.5 μM, inhibitor 1.25 μM. It is filed as biochemical. Here is the method:
(§1) Following initial incubation, excess cold ATP was added for a final concentration of 12 mM and was incubated overnight. Unincorporated nucleotide was removed by buffer exchange using a Zeba™ spin column equilibrated in 50 mM K·HEPES pH7.5, 100 mM NaCl. 6His-MKK6^EE was then removed by Ni-NTA resin equilibrated in 50 mM K·HEPES pH7.5, 100 mM NaCl, 20 mM imidazole. The flow-through fraction from the Ni-NTA resin containing p38-^32P was then exchanged into 50 mM K·HEPES pH7.5, 100 mM NaCl buffer using 3 subsequent Zeba spin columns to remove all unincorporated nucleotide and free phosphate. Labeled p38-^32P was aliquoted and frozen at −80° C. for future use.
WIP1 and PPM1A: All WIP1 phosphatase assays were performed at room temperature in 50 mM K HEPES pH7.5, 0.8 mM CHAPS, 0.05 mg/mL BSA, and 15 mM MnCl2. WIP1 concentration was 2.5 μM, PPM1A concentration was 0.5 μM and p38-^32P was 0.25 μM unless otherwise stated. […] Reactions were stopped with 0.5 MEDTA, pH8.0 and run on PEI-Cellulose TLC plates developed in 1 M LiCl2 and 0.8 M acetic acid and imaged on a Typhoon™ scanner. Phosphatase assays were performed more than three independent times as separate experiments. Data shown in figures is from a single representative experiment, and reported errors are the error from the fit unless indicated otherwise.

The next assay has as its target T2, p38α (T180A) (Homo sapiens, UniProt Q16539, T180A).
T2 construct: 6-His (cleaved yes); made in house; host or cells: E. coli BL21 (DE3)
Nature of the assay: DUSP3 dephosphorylation of single tyrosine phosphorylated p38α (T180A). Particulars: DUSP3 15 μM, p38α T180A 0.25 μM, 5-fold excess inhibitor. It is filed as biochemical. As to the method: as §1
DUSP3: All DUSP3 phosphatase assays were performed in 50 mM K HEPES pH7.5 and 100 mM NaCl. Reactions were stopped with SDS and run on PEI-Cellulose TLC plates run through water then developed in 1 M LiCl2 and 0.8 M acetic acid and imaged on a Typhoon scanner. Phosphatase assays were performed more than three independent times as separate experiments. Data shown in figures is from a single representative experiment, and reported errors are the error from the fit unless indicated otherwise.
+p38^T180A_32P: Reactions were run at room temperature with 15 μM DUSP3 and 0.25 μM p38^T180A_32.

For a further assay, the target named is p38 (Homo sapiens, UniProt Q16539). Particulars: initial biochemical kinase screening; cited from earlier work.
Chain of p38 (Q16539 whole entry): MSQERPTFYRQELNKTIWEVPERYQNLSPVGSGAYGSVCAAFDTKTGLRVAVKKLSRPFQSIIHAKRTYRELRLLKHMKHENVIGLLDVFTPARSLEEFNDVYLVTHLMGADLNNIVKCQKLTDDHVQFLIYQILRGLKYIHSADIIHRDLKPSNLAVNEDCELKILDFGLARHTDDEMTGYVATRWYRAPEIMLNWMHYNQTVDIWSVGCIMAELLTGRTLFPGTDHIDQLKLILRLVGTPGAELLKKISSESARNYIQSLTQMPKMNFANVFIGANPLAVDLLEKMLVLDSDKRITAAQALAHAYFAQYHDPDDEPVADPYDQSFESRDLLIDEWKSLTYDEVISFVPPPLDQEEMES
A further assay has as its system T3, MKK6 (Homo sapiens).
T3 construct: made in house; host or cells: E. coli BL21 (DE3)
Kind of assay: Kinase assay: phosphorylation of p38α by MKK6. Particulars: biochemical assay; 50 μM inhibitor, 25 μM p38. Here is the method:
Kinase assay: All kinase assays were performed at room temperature in 20 mM K HEPES PH7.5, 0.5 mMEDTA, 20 mM MgCl2 and 2 mM DTT. […] MKK6^EE was added to 25 μM p38, 25 μM cold ATP and 1 μCi of γ-^32P ATP. 50 μM p38 inhibitors were added to a final DMSO concentration of 5%. Reactions were stopped with SDS and run on PEI-Cellulose TLC plates run through water then developed in 1 M LiCl2 and 0.8 M acetic acid and imaged on a Typhoon™ scanner.

Setting [2] is: single turnover, relative to DMSO control.

T1 sequence (Q16539 whole entry): as above
T2 sequence (Q16539 whole entry T180A): as the sequence (Q16539 whole entry) above, with T180A counted along it
T3 sequence (Q16539 whole entry): as the sequence (Q16539 whole entry) above

With `Cc1ccc(-n2nc(C(C)(C)C)cc2NC(=O)Nc2ccc(OCCN3CCOCC3)c3ccccc23)cc1` [BIRB 796], the “MKK6 dual phosphorylation measured by ELISA” value in the assay on MKK6 is reported as “block”. In assay [1], the “level of dual-phosphorylated p38α in HL60 cells” value (shortened to “level”) was “disappeared”, the “single-tyrosine phosphorylated p38α / phospho-tyrosine in HL60 cells (phospho-site specific antibody)” value is “increase”, the “threonine phosphorylation of p38α in HL60 cells (phospho-site specific antibody)” value was “disappearance” and the “p38α threonine phosphorylation in cells harvested immediately after addition of inhibitor” value (“p38α threonine phosphorylation … of inhibitor” below) was “completely disappeared”.

For `CC(C)(C)Cn1c(N)nc2ccc(-c3[nH]c(C(C)(C)C)nc3-c3ccc(F)cc3)nc21` [LY2228820], the “decrease of the rate of threonine dephosphorylation of p38α by WIP1” value on p38α (setting [2]) turned out to be 5 fold. Further, the “level” value in assay [1] was “increased”.

In the case of `Oc1ccc(-c2nc(-c3ccncc3)c(-c3ccc(F)cc3)[nH]2)cc1` [SB202190], at p38α (setting [2]), the “decrease of the rate of threonine dephosphorylation of p38α by WIP1” value stood at 5 fold. Further, in assay [1], the “level” value is reported as “increased” and the “threonine phosphorylation of p38α in HL60 cells (phospho-site specific antibody)” value is “increased”. Moreover, the “effect on rate of DUSP3 dephosphorylation of Y182 of p38α (T180A)” value on p38α (T180A) is given as “no effect”.

Regarding `NC(=O)c1ccc2[nH]ccc2c1` [SD-169], the “effect on WIP1 threonine dephosphorylation of p38α (in words)” value at p38α is “no change on phosphatase activity”.

As for `CCc1nc(-c2cccc(C)c2)c(-c2ccnc(NC(=O)c3ccccc3)c2)s1` [TAK-715], in assay [1], the “level” value is given as “caused disappearance” and the “single-tyrosine phosphorylated p38α / phospho-tyrosine in HL60 cells (phospho-site specific antibody)” value is “did not accumulate”.

Regarding `O=c1ncn2nc(Sc3ccc(F)cc3F)ccc2c1-c1c(Cl)cccc1Cl` [VX-745], the “effect on WIP1 threonine dephosphorylation of p38α (in words)” value at p38α was “did not affect”. In assay [1], the “level” value is reported as “caused disappearance” and the “single-tyrosine phosphorylated p38α / phospho-tyrosine in HL60 cells (phospho-site specific antibody)” value was “did not accumulate”.

As to `Cc1c(F)cc(C(=O)NC2CC2)cc1-c1ccc(C(=O)NCC(C)(C)C)cn1` [losmapimod], in assay [1], the “level” value is “caused disappearance” and the “single-tyrosine phosphorylated p38α / phospho-tyrosine in HL60 cells (phospho-site specific antibody)” value is listed as “did not accumulate”.

Turning to `Cc1cn(-c2cc(NC(=O)c3ccc(C)c(Nc4nccc(-c5cccnc5)n4)c3)cc(C(F)(F)F)c2)cn1` [nilotinib], on p38α (setting [2]), the “increase of the rate of threonine dephosphorylation of p38α by WIP1” value was “four-fold”. Besides, in assay [1], the “level” value is reported as “disappeared”, the “single-tyrosine phosphorylated p38α / phospho-tyrosine in HL60 cells (phospho-site specific antibody)” value was “increase”, the “threonine phosphorylation of p38α in HL60 cells (phospho-site specific antibody)” value is “disappearance” and the “p38α threonine phosphorylation … of inhibitor” value was “completely disappeared”. Further, at p38α (T180A), the “effect on rate of DUSP3 dephosphorylation of Y182 of p38α (T180A)” value is given as “no effect”. The “binding of p38 compared to primary target ABL” value on p38 is reported as “weak off-target binder”. In addition, in the assay on MKK6 (Homo sapiens), the “threonine phosphorylation of p38α by MKK6” value is “did not impact”.

For `Cc1ccc(-n2nc(C(C)(C)C)cc2NC(=O)NCc2cc(F)ccc2Oc2ccc3c(cnn3CCO)c2)cc1` [pexmetinib], in assay [1], the “level” value is “disappeared”, the “single-tyrosine phosphorylated p38α / phospho-tyrosine in HL60 cells (phospho-site specific antibody)” value is “increase”, the “threonine phosphorylation of p38α in HL60 cells (phospho-site specific antibody)” value is “disappearance” and the “p38α threonine phosphorylation … of inhibitor” value is “completely disappeared”.
